# Biological target: T1, 5-hydroxytryptamine receptor 2A (Rattus norvegicus, UniProt P14842)
# Assay: Binding affinity against 5-hydroxytryptamine 2A receptor from rat forebrain using [3H]ketanserin as radioligand
# T1 sequence (P14842 whole entry): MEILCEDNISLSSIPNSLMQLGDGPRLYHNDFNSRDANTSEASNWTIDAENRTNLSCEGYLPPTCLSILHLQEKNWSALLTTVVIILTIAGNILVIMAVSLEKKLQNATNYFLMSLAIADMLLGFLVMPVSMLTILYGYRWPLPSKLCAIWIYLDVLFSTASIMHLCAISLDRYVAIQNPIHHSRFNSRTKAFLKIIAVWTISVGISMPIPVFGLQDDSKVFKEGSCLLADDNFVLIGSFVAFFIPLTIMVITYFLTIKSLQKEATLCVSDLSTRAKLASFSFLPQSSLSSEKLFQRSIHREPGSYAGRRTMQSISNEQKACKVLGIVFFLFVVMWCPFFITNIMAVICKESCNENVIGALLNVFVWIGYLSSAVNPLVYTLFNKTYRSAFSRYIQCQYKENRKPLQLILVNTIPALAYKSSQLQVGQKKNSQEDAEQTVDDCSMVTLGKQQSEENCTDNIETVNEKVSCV
row,Ki,SMILES
1,0.355 µM,CC(=C1CCN(C)CC1)c1ccccc1
2,0.004 µM,CN1CCC(=C2c3ccccc3Oc3ccccc32)CC1
3,0.009 µM,CN1CCC(=C2c3ccccc3CCc3ccccc32)CC1
4,0.013 µM,CN1CCC(=C(c2ccccc2)c2ccccc2)CC1
5,0.199 µM,CN1CCC(=C2c3ccccc3-c3ccccc32)CC1
6,0.0025 µM,CN1CCC(=C2c3ccccc3Sc3ccccc32)CC1 [PIMETHIXENE]

# Biological target: T1, 5-hydroxytryptamine receptor 2A
# Assay: Binding affinity against 5-hydroxytryptamine 2A receptor expressed NIH3T3 cells using [3H]ketanserin
# Type: cell-based
row,Ki,SMILES
1,0.065 µM,NCC1c2ccccc2Sc2ccccc21
2,0.17 µM,NCC1c2ccccc2Oc2ccccc21
3,0.0007 µM,CN1CCC(=C2c3ccccc3Cc3ccccc32)CC1
4,0.112 µM,NCC1c2ccccc2CCc2ccccc21

# Reference: ChEMBL document CHEMBL1134201, “Exploring the relationship between binding modes of 9-(aminomethyl)-9,10-dihydroanthracene and cyproheptadine analogues at the 5-HT2A serotonin receptor” (Bioorg Med Chem Lett, 2001)
